Assay [1] concerns E. coli O157:H7. Kind of assay: Inactivation of bacteria on fresh produce (lettuce leaf) surfaces. Format: cell-based, Escherichia coli O157:H7. Conditions: Example 2; 20-min exposure, YCWPs@halamine 0.25 mg/ml; sodium hypochlorite 20 ppm free chlorine. As to the method:
FIG. 6B is a graph illustrating inactivation of E. coli O157:H7 on fresh produce surfaces after 20-min exposure to YCWPs@halamine (0.25 mg/ml).
The inactivation of bacteria on fresh produce surfaces was also evaluated. These YCWPs based sanitizer was also found to be effective in causing more than 5 log reductions in E. coli O157:H7 on the surface of lettuce leaves as shown in FIG. 6B. The conventional chlorine-based sanitizer (sodium hypochlorite, 20 ppm free chlorine) achieved less than 2-log reduction of the inoculated bacteria.
To inoculate fresh produce, samples (e.g., spinach, lettuce, tomato, and orange) were first rinsed with 70% ethanol and dried at 25° C. before sample preparation. Fresh produce samples were then prepared by cutting spinach and lettuce leaves into disks with 1 cm of diameter and tomato and orange skins into squares of 9 cm^2. […]
After inoculation and incubation, the meat and fresh produce samples were transferred to a simulated wash bath with added particle-based sanitizers. […] The samples were stirred in a shaking bath a speed of 250 rpm for a pre-determined period (1, 2, 5, and 10 min). […]
To quantify the reduction in microbial count, the samples after treatment were transferred to sterile tubes containing silicon-carbide beads and 10 mL of PBS, and vortexed for 60 seconds to recover the attached bacteria. […]

Assay [2] has as its system Listeria innocua. Kind of assay: Inactivation of bacteria in simulated wash water. Format: cell-based. As to the method:
The activity and inactivation of bacteria in simulated wash water exposed to the functionalized particles and conventional chlorine sanitizers were evaluated and compared. More than a 5-log reduction of Listeria innocua in wash water was obtained after a 0.5-min exposure to YCWPs based sanitizer at the concentration of 0.1 mg/mL. In comparison, the conventional chlorine-based sanitizer (sodium hypochlorite) needed 1.5 min to achieve a 5-log reduction. In the presence of organic matter (COD=2000 mg/L), more than 5 log reduction of Listeria innocua in wash water was obtained after 5 min exposure to YCWPs based sanitizer.

Assay [3] concerns L. innocua 3-day biofilm. Kind of assay: Inactivation of 3-day cultured biofilm on plastic surface, plate counting assay. The format is cell-based, Listeria innocua. Conditions: 1-hour exposure. As to the method:
FIG. 6A is a graph illustrating inactivation of L. innocua in 3-day biofilm after 1-hour exposure: (a) metabolic activity of biofilm; (b) results of plate counting assay
The antimicrobial activity was characterized based on the metabolic activity of the biofilm measured using Resazurin and a plate counting assay.
The metabolic activity of biofilm after a 1-hour exposure to the particulate sanitizer was evaluated. The time required to achieve maximum fluorescence intensity indicated the relative level of metabolic activity of bacterial cells under different incubation conditions. Listeria biofilms that were incubated with PBS were treated as a control. […] The conventional sanitizer (sodium hypochlorite) only achieved 3-log reduction after a 1-hour exposure.
Pre-formed biofilms were treated with either a selected particle-based sanitizer or with a conventional sanitation procedure for the sanitation of a food contract surface. […] Quantification of the treatment was assessed based on measuring the changes in the metabolic activity of bacterial cells. Quantification of the residual biomass was conducted using crystal violet staining and calcofluor labeling and the standard plate counting of the bacterial cells after dispersing the biofilms using an ultrasonic washer.

Consider `OCl` [sodium hypochlorite], for which the “reduction in E. coli O157:H7 on the surface of lettuce leaves” value in assay [1] was “less than 2 log”. Further, the “reduction of bacterial population in wash water in the presence of organic matter” value in assay [2] (COD=2000 mg/L, 20 ppm free chlorine, 20 minutes of exposure) is on record as “did not reduce the bacterial population”. The “time needed to achieve a 5-log reduction of Listeria innocua in wash water” value in assay [2] (simulated wash water) was 1.5 min. Also, the “reduction of the bacterial population in the 3-day biofilm” value in assay [3] worked out at 3 log.

Values taken from patent publication US20200337304A1, “ANTIMICROBIAL PARTICLES AND SANITIZATION METHODS” (priority 2017, published 2020).
